Data as given in patent publication US20060134286A1, “Gallocatechin gallate-containing composition” (Suntory Limited, priority 2002, published 2006).

System: Streptococcus mutans (MT8148R)
Assay: Antibacterial activity against Streptococcus mutans (colony count after 1 hour contact with sample)
Assay type: cell-based
Conditions: final concentration of the sample 1 mg/mL; 37° C. for 1 hour; colonies counted on MS agar medium after 2 days
Procedure: Streptococcus mutans (MT8148R) was cultured in a brain heart infusion medium (BHI, manufactured by Difco) at 37° C. for 18 hours. After collection of the cells by centrifugation, the precipitate was washed three times with a phosphate buffer solution (PBS, pH 6.8). Then the cells were suspended to give an absorbance of 0.5 at 550 nm. Thus, about 2×10^7 colonies per mL (expressed in colony forming unit: CFU) were formed . Next, an equal amount of a previously prepared sample solution was added to the suspension and the resultant mixture was allowed to stand at 37° C. for 1 hour. 0.1 mL of this liquid mixture or the same mixture seriously 10-fold diluted was sowed on a Mitis salivarius agar medium (MS agar medium, manufactured by Difco). After culturing at 37° C. for 2 days, the colonies thus formed were counted. The antibacterial activity was indicated in the logarithm of CFU of test group/CFU of control lot (i.e., the reducing ratio).
The mixing ratio of EGCG to GCG (manufactured by Sigma) was varied so as to adjust the final concentration of the sample to 1 mg/mL and thus the antibacterial activity was examined. […]

O=C(O[C@@H]1Cc2c(O)cc(O)cc2O[C@H]1c1cc(O)c(O)c(O)c1)c1cc(O)c(O)c(O)c1 [GCG, gallocatechin gallate]
Antibacterial activity (logarithm of CFU of test group/CFU of control lot, the reducing ratio): −3.17

(−)-epigallocatechin gallate [EGCG]
Antibacterial activity (logarithm of CFU of test group/CFU of control lot, the reducing ratio): −3.50
